According to ChEMBL document CHEMBL1144614, “Darpones and water-soluble aminobutoxylated darpone derivatives are distinguished by matrix COMPARE analysis” (Bioorg Med Chem Lett, 2007):

Key:
[1] = system: HCT-15; test: Growth inhibition of HCT15 cells; assay type: functional; details: Homo sapiens
[2] = Solubility in phosphate buffer at pH 4.5; assay type: physicochemical

Compound	GI50 [1] [nM]	solubility [2] [µg/mL]
COc1ccc(-c2cc(-c3cccc(Cl)c3)nc3c2CC(=O)Nc2ccccc2-3)cc1	1900	–
O=C1Cc2c(-c3ccccc3)cc(-c3cccc(Cl)c3)nc2-c2ccccc2N1	2700	–
COc1ccc2c(c1)NC(=O)Cc1c(-c3ccccc3)cc(-c3cccc(Cl)c3)nc1-2	> 100000	–
COc1ccc(-c2cc(-c3ccccc3)c3c(n2)-c2ccccc2NC(=O)C3)cc1Cl	3000	–
Cl.NCCCCOc1ccc(-c2cc(-c3ccccc3)c3c(n2)-c2ccccc2NC(=O)C3)cc1Cl	13800	< 5
CN1CCN(CCCCOc2ccc(-c3cc(-c4ccccc4)c4c(n3)-c3ccccc3NC(=O)C4)cc2Cl)CC1.Cl.Cl	870	< 5
CN1CCN(CCCCOc2ccc3c(c2)NC(=O)Cc2c(-c4ccccc4)cc(-c4cccc(Cl)c4)nc2-3)CC1.Cl.Cl	810	> 500
CN1CCN(CCCCOc2ccc(-c3cc(-c4cccc(Cl)c4)nc4c3CC(=O)Nc3ccccc3-4)cc2)CC1.Cl.Cl	910	> 500
Cl.O=C1Cc2c(-c3ccc(OCCCCN4CCOCC4)cc3)cc(-c3cccc(Cl)c3)nc2-c2ccccc2N1	1200	> 500
Cl.O=C1Cc2c(-c3ccccc3)cc(-c3ccc(OCCCCN4CCOCC4)c(Cl)c3)nc2-c2ccccc2N1	2300	5
Cl.NCCCCOc1ccc(-c2cc(-c3cccc(Cl)c3)nc3c2CC(=O)Nc2ccccc2-3)cc1	6600	< 5
Cl.O=C1Cc2c(-c3ccccc3)cc(-c3cccc(Cl)c3)nc2-c2ccc(OCCCCN3CCOCC3)cc2N1	1600	> 500
Cl.NCCCCOc1ccc2c(c1)NC(=O)Cc1c(-c3ccccc3)cc(-c3cccc(Cl)c3)nc1-2	1800	< 5
